# Data: US4215069A, “Arylthiovinylcyclopropanecarboxylate intermediates” (FMC Corporation, priority 1979, dated 1980)
# Experiments:
# [1] = tested on: milkweed bug (Oncopeltus faciatus [Dallas]); assay: Initial contact activity against milkweed bug (percent kill); format: in vivo; conditions: 72 hours exposure, read-out: Percent Kill MWB, initial activity
# Description: (§1) The test compound was dissolved in a small amount of acetone, and the acetone solution was dispersed in water containing one drop of isooctylphenyl polyethoxyethanol to make a solution having 1250 ppm (w/w) active ingredient. Aliquots of this solution were diluted with an appropriate amount of water to provide solutions containing various concentrations of active ingredient. Test organisms and techniques were as follows: the activity against Mexican bean beetle (Epilachna varivestis Muls.) and southern armyworm (Spodoptera eridania [Cram.]) was evaluated by dipping the leaves of pinto bean plants into the test solution and infesting the leaves with the appropriate immature-form insects when the foliage had dried. The activity against the pea aphid (Acyrthosiphon pisum [Harris]) was evaluated on broad bean plants whose leaves were dipped before infestation with adult aphids. The activity against twospotted spider mites (Tetranychus urticae Koch) was evaluated on pinto bean plants whose leaves were dipped after infestation with adult mites. The activity against the milkweed bug (Oncopeltus faciatus [Dallas]) was evaluated by spraying the test solutions into glass dishes or jars containing the adult insects. Following application of the compound and infestation the tests were maintained in a holding room at 80° F. and 50% relative humidity for an exposure period of 72 hours. At the end of this time the dead and living insects or mites were counted and the percent kill was calculated. Results of these tests are summarized in Table I. Most of the compounds tested were active against all the insects.
# [2] = tested on: Mexican bean beetle (Epilachna varivestis Muls.); assay: Initial contact activity against Mexican bean beetle (percent kill); format: in vivo; conditions: 72 hours exposure, read-out: Percent Kill MBB, initial activity
# Description: as §1
# [3] = tested on: southern armyworm (Spodoptera eridania [Cram.]); assay: Initial contact activity against southern armyworm (percent kill); format: in vivo; conditions: 72 hours exposure, read-out: Percent Kill AW, initial activity
# Description: as §1
# [4] = tested on: pea aphid (Acyrthosiphon pisum [Harris]); assay: Initial contact activity against pea aphid (percent kill); format: in vivo; conditions: 72 hours exposure, read-out: Percent Kill PA, initial activity
# Description: as §1
# [5] = tested on: twospotted spider mites (Tetranychus urticae Koch); assay: Initial contact activity against twospotted spider mite (percent kill); format: in vivo; conditions: 72 hours exposure, read-out: Percent Kill SM, initial activity
# Description: as §1
# Milkweed bug = assay: 7-day residual contact activity against milkweed bug (percent kill); format: in vivo, Oncopeltus faciatus; conditions: Oncopeltus fasciatus, 168 h, treated surface aged seven days in light and air, read-out: Percent Kill MWB, 7-day residual activity
# Description: as §1
# (§2) The residual contact activity of certain of the compounds was determined on the same organisms using the techniques described above, except that in each case the treated surface was allowed to dry and was exposed to normal light and air for seven days before introduction of the mites or insects. The seven day residual activity was minimal for the mite but substantial against the remaining organisms. Again, the remarkable activity of some of these compounds against milkweed bug and Mexican bean beetle was noted.
# Southern armyworm = assay: 7-day residual contact activity against southern armyworm (percent kill); format: in vivo; conditions: Spodoptera eridania, 168 h, treated surface aged seven days in light and air, read-out: Percent Kill AW, 7-day residual activity
# Description: as §1, §2
# Pea aphid = assay: 7-day residual contact activity against pea aphid (percent kill); format: in vivo; conditions: Acyrthosiphon pisum, 168 h, treated surface aged seven days in light and air, read-out: Percent Kill PA, 7-day residual activity
# Description: as §1, §2
# Twospotted spider mite = assay: 7-day residual contact activity against twospotted spider mite (percent kill); format: in vivo; conditions: Tetranychus urticae, 168 h, treated surface aged seven days in light and air, read-out: Percent Kill SM, 7-day residual activity
# Description: as §1, §2
# Mexican bean beetle = assay: 7-day residual contact activity against Mexican bean beetle (percent kill); format: in vivo; conditions: Epilachna varivestis, 168 h, treated surface aged seven days in light and air, read-out: Percent Kill MBB, 7-day residual activity
# Description: as §1, §2
# [6] = prior art, Elliott, et al.; cited from earlier work
Compound,mortality at 78 ppm [1] [%],mortality at 312 ppm [1] [%],mortality at 1250 ppm [1] [%],mortality at 5 ppm [2] [%],mortality at 20 ppm [2] [%],mortality at 78 ppm [2] [%],mortality at 1250 ppm [2] [%],mortality at 5 ppm [3] [%],mortality at 20 ppm [3] [%],mortality at 78 ppm [3] [%],mortality at 1250 ppm [3] [%],mortality at 78 ppm [4] [%],mortality at 312 ppm [4] [%],mortality at 1250 ppm [4] [%],mortality at 312 ppm [5] [%],mortality at 1250 ppm [5] [%],activity at 312 ppm (Milkweed bug) [%],activity at 1250 ppm (Milkweed bug) [%],activity at 20 ppm (Southern armyworm) [%],activity at 78 ppm (Southern armyworm) [%],further results
"CC1(C)C(C=CSc2ccccc2)C1C(=O)OCc1cccc(Oc2ccccc2)c1 (mixture of isomers) [Example 1, 3-phenoxybenzyl cis,trans-3-[2-(E,Z)-phenylthioethenyl]-2,2-dimethylcyclopropanecarboxylate]",10,5,30,28,0,62,100,0,0,0,0,0,0,0,0,0,10,0,0,0,mortality at 20 ppm [1]: 10%; mortality at 1.2 ppm [2]: 44%; mortality at 1.2 ppm [3]: 0%; mortality at 20 ppm [4]: 0%; mortality at 20 ppm [5]: 0%; mortality at 78 ppm [5]: 0%; activity at 78 ppm (Milkweed bug): 5%; activity at 312 ppm (Southern armyworm): 0%; activity at 1250 ppm (Southern armyworm): 0%; activity at 78 ppm (Pea aphid): 0%; activity at 312 ppm (Pea aphid): 10%; activity at 1250 ppm (Pea aphid): 30%; activity at 1250 ppm (Twospotted spider mite): 0%
"CC1(C)C(C=CSc2ccccc2)C1C(=O)OC(C#N)c1cccc(Oc2ccccc2)c1 (mixture of isomers) [Example 2, α-cyano-3-phenoxybenzyl cis,trans-3-[2-(E,Z)-phenylthioethenyl]-2,2-dimethylcyclopropanecarboxylate]",20,90,100,0,22,80,100,0,0,0,41,0,5,75,0,0,0,5,0,0,mortality at 20 ppm [1]: 0%; mortality at 1.2 ppm [2]: 6%; mortality at 1.2 ppm [3]: 0%; mortality at 20 ppm [4]: 0%; mortality at 20 ppm [5]: 0%; mortality at 78 ppm [5]: 0%; activity at 78 ppm (Milkweed bug): 5%; activity at 312 ppm (Southern armyworm): 0%; activity at 1250 ppm (Southern armyworm): 0%; activity at 78 ppm (Pea aphid): 30%; activity at 312 ppm (Pea aphid): 23%; activity at 1250 ppm (Pea aphid): 100%; activity at 1250 ppm (Twospotted spider mite): 0%
"CC1(C)C(C=C(Cl)Sc2ccccc2)C1C(=O)OC(C#N)c1cccc(Oc2ccccc2)c1 (mixture of isomers) [Example 3, α-cyano-3-phenoxybenzyl cis,trans-3-[2-(E,Z)-chloro-2-phenylthioethenyl]-2,2-dimethylcyclopropanecarboxylate]",100,100,100,100,92,92,94,0,0,75,100,60,85,100,0,49,85,100,62,56,mortality at 20 ppm [1]: 70%; mortality at 1.2 ppm [2]: 80%; mortality at 1.2 ppm [3]: 0%; mortality at 20 ppm [4]: 27%; mortality at 20 ppm [5]: 0%; mortality at 78 ppm [5]: 0%; activity at 78 ppm (Milkweed bug): 70%; activity at 2.5 ppm (Mexican bean beetle; 2.5 ppm): 66%; activity at 10 ppm (Mexican bean beetle; 10 ppm): 75%; activity at 39 ppm (Mexican bean beetle; 39 ppm): 100%; activity at 78 ppm (Mexican bean beetle): 100%; activity at 1250 ppm (Mexican bean beetle): 97%; activity at 312 ppm (Southern armyworm): 53%; activity at 1250 ppm (Southern armyworm): 100%; activity at 78 ppm (Pea aphid): 50%; activity at 312 ppm (Pea aphid): 65%; activity at 1250 ppm (Pea aphid): 100%; activity at 1250 ppm (Twospotted spider mite): 0%
"CC1(C)C(C=C(Cl)Sc2ccccc2)C1C(=O)OCc1cccc(Oc2ccccc2)c1 (mixture of isomers) [Example 4, 3-phenoxybenzyl cis,trans-3-[2-(E,Z)chloro-2-phenylthioethenyl]-2,2-dimethylcyclopropanecarboxylate]",10,90,100,100,94,100,95,11,0,68,100,75,100,100,31,42,20,100,0,5,mortality at 312 ppm ([2]; 312 ppm): 100%; mortality at 312 ppm ([3]; 312 ppm): 89%; activity at 20 ppm (Mexican bean beetle; 20 ppm): 89%; activity at 78 ppm (Mexican bean beetle): 100%; activity at 312 ppm (Mexican bean beetle; 312 ppm): 100%; activity at 1250 ppm (Mexican bean beetle): 100%; activity at 312 ppm (Southern armyworm): 55%; activity at 1250 ppm (Southern armyworm): 95%; activity at 312 ppm (Pea aphid): 0%; activity at 1250 ppm (Pea aphid): 85%; activity at 1250 ppm (Twospotted spider mite): 0%
"CC1(C)C(C=C(Cl)Cl)C1C(=O)OCc1cccc(Oc2ccccc2)c1 (stereo not drawn) [3-phenoxybenzyl 3-(β,β-dichlorovinyl)-2,2-dimethylcyclopropanecarboxylate]",–,–,–,–,–,–,–,–,–,–,–,–,–,–,–,–,–,–,–,–,resistance to photo-oxidative degradation in words [6]: remarkably resistent to photo-oxidative degradation
